According to US7851641B2, “Compounds useful for treating neurodegenerative disorders” (Satori Pharmaceuticals, Inc., priority 2005, dated 2010):

Columns and labels:
amyloid-β (1-42) peptide [1] = test: IP-MS quantification of amyloid-β peptides (Wang et al protocol); format: cell-based; conditions: in vitro, FIG. 21
Description: (§1) Compounds of the present invention were assayed to determine their effect on the total ration of amyloid-β (1-42) peptide in vitro using an assay protocol substantially similar to that described by Wang et al, J. Biol. Chem. 1996, 50:31894-31902, The Profile of Soluble Amyloid β Protein in Cultured Cell Media, the entirety of which is hereby incorporated herein by reference. This assay quantifies amyloid-β protein using immunoprecipitation and mass spectrometry (IP-MS).

amyloid-β (1-42) peptide [2] = test: IP-MS quantification of amyloid-β peptides in 7W cells (APPwt) and 7PA2 cells (APPV717F); format: cell-based; conditions: FIG. 22
Description: as §1
Compound 6 was also assayed according to the method described in Wang et al, in 7W cells (APPwt) and 7PA2 cells (APPV717F). The APP717 mutations increase the relative amount of amyloid-β (1-42) peptide. In this assay, it was shown that compound 6 reduces amyloid-β (1-42) peptide while increasing amyloid-β (1-39) peptide.

Which “effect on amyloid-β (1-37) peptide” value (amyloid-β (1-42) peptide [1]) does the source give for `CC(=O)O[C@@H]([C@H]1C[C@@H](C)C2=C(O1)[C@H](O)[C@@]1(C)[C@@H]3CC[C@H]4C(C)(C)[C@@H](O[C@@H]5OC[C@@H](O)[C@H](O)[C@H]5O)CC[C@@]45C[C@@]35CC[C@]21C)C(C)(C)O` [Compound 6, 24-O-Acetylhydroshengmanol 3-β-D-xylopyranoside (delta-16,17)-enol ether] here?
Its value is “increasing”.

And the “effect on amyloid-β (1-39) peptide” value (amyloid-β (1-42) peptide [1])?
Its value is “increasing”.

What about the “effect on amyloid-β (1-42) peptide” value (amyloid-β (1-42) peptide [1]) of the same compound?
The value was “reduced”.

And the “effect on amyloid-β (1-39) peptide” value (amyloid-β (1-42) peptide [2])?
Its value is “increasing”.

What about the “effect on amyloid-β (1-42) peptide” value (amyloid-β (1-42) peptide [2]) of the same compound?
Its value is “reduces”.
